Tests used:
CASOB (Sicklepod) = experiment: Postemergence herbicidal evaluation; type: in vivo, Cassia obtusifolia
Summary of the method: (§1)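 Visual 0-9 injury score (stand, vigor, malformation, size, chlorosis, appearance vs untreated) taken four to five weeks post-spray, averaged across repeat tests. Test plants about two weeks old; foliar spray of acetone/water (1:1) with 0.5% surfactant delivering ~0.0156-0.500 kg active/ha.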

ZEAMX (Corn, Field) = experiment: Preemergence herbicidal evaluation; type: in vivo, Zea mays; conditions: rated 4-5 weeks after treatment
Summary of the method: (§2)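 In this greenhouse assay, monocot and dicot seeds are planted in soil and treated prior to emergence with an aqueous acetone spray (about 0.0156-0.500 kg/ha). Plants are assessed visually against control on a 0-9 scale after 4-5 weeks.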

ORYSAT (Rice, Tebonnet) [1] = experiment: Preemergence herbicidal evaluation; type: in vivo, Oryza sativa, (L.) Tebonnet; conditions: rated 4-5 weeks after treatment
Summary of the method: as §2

[2] = system: TRZAWR (Wheat, Winter, cv Riband); experiment: Preemergence herbicidal evaluation; type: in vivo, Triticum aestivum; conditions: rated 4-5 weeks after treatment
Summary of the method: as §2

GALAP (Galium) = experiment: Preemergence herbicidal evaluation; type: in vivo, Galium aparine; conditions: rated 4-5 weeks after treatment
Summary of the method: as §2

[3] = system: CHEAL (Lambsquarters, Common); experiment: Postemergence herbicidal evaluation; type: in vivo, Chenopodium album
Summary of the method: as §1

CYPSE (Flatsedge) = experiment: Postemergence weed control under flooded paddy conditions; type: in vivo, Cyperus serotinus; conditions: postemergence weeds, rated 3 to 4 weeks after treatment
Summary of the method: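 Containers holding 3–5 cm weeds and rice at 1.5–2.5 leaves are flooded to 1.5–3 cm above soil. Compound in 50/50 v/v aqueous/acetone is then added directly to the water, about 0.0313–0.500 kg/ha. Plants are kept in the greenhouse and rated 0–9 visually at 3–4 weeks.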

MOOVA (Monochoria) = experiment: Preemergence weed control under flooded paddy conditions; type: in vivo, Monochoria vaginalis; conditions: rated 3-4 weeks after treatment
Summary of the method: (§3)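 Silt loam, seeds in top 0.5 cm; flood held 1.5-3 cm; test cpd as acetone/water 50/50 into flood water, ~0.0313-0.500 kg/ha a.i.; greenhouse 3-4 wk; visual 0-9 score vs control.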

ECHCG (Barnyardgrass) = experiment: Postemergence herbicidal evaluation; type: in vivo, Echinochloa crus-galli
Summary of the method: as §1

CYPIR (Rice Flatsedge) = experiment: Preemergence weed control under flooded paddy conditions; type: in vivo, Cyperus iria; conditions: rated 3-4 weeks after treatment
Summary of the method: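 Flooded-pot preemergence screen with silt loam and seeds in the upper 0.5 cm. Dose about 0.0313 to 0.500 kg/ha, delivered into flood water; visual 0-9 score after 3 to 4 weeks.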

ORYSAT (Rice, Tebonnet) [4] = experiment: Postemergence herbicidal evaluation; type: in vivo, Oryza sativa, (L.) Tebonnet
Summary of the method: as §1

[5] = system: SAGPY (Arrowhead (Pygmaea)); experiment: Preemergence weed control under flooded paddy conditions; type: in vivo, Sagittaria pygmaea; conditions: rated 3-4 weeks after treatment
Summary of the method: as §3

SETVI (Foxtail, Green) = experiment: Preemergence herbicidal evaluation; type: in vivo, Setaria viridis; conditions: rated 4-5 weeks after treatment
Summary of the method: as §2

[6] = system: GLXMAW (Soybean, Williams); experiment: Preemergence herbicidal evaluation; type: in vivo, Glycine max, (L.) Merr. cv Williams; conditions: rated 4-5 weeks after treatment
Summary of the method: as §2

In the case of C=CCN1C(=O)C(CC(=O)OC)SC1=Nc1cc(-n2c(=O)cc(C(F)(F)F)n(C)c2=O)c(F)cc1Cl (stereo not drawn) [Compound 64, Methyl 3-allyl-2-{{2-chloro-5-[3,6-dihydro-3-methyl-2,6-dioxo-4-(trifluoromethyl)-1(2H)-pyrimidinyl]-4-fluorophenyl}imino}-4-oxo-5-thiazolidineacetate], the “Postemergence herbicidal rating CASOB” value (CASOB (Sicklepod); Rate 0.0158 kg/ha) is reported as 2.0, the “Postemergence herbicidal rating CASOB” value (CASOB (Sicklepod); Rate 0.0315 kg/ha) is reported as 2.0 and the “Postemergence herbicidal rating CASOB” value (CASOB (Sicklepod); Rate 0.0630 kg/ha) is reported as 3.0. The “Preemergence herbicidal rating ZEAMX” value (ZEAMX (Corn, Field); rate 0.0156 kg/ha) was 0.0, the “Preemergence herbicidal rating ZEAMX” value (ZEAMX (Corn, Field); rate 0.0313 kg/ha) was 0.0 and the “Preemergence herbicidal rating ZEAMX” value (ZEAMX (Corn, Field); rate 0.0625 kg/ha) was 1.0. For the same molecule, the “Preemergence herbicidal rating ZEAMX” value (ZEAMX (Corn, Field); rate 0.1250 kg/ha) was 3.0, the “Preemergence herbicidal rating ZEAMX” value (ZEAMX (Corn, Field); rate 0.2500 kg/ha) was 7.0 and the “Preemergence herbicidal rating ORYSAT” value (ORYSAT (Rice, Tebonnet) [1]; rate 0.0156 kg/ha) was 0.0. The “Preemergence herbicidal rating ORYSAT” value (ORYSAT (Rice, Tebonnet) [1]; rate 0.0313 kg/ha) was 0.0, the “Preemergence herbicidal rating ORYSAT” value (ORYSAT (Rice, Tebonnet) [1]; rate 0.0625 kg/ha) was 1.0 and the “Preemergence herbicidal rating ORYSAT” value (ORYSAT (Rice, Tebonnet) [1]; rate 0.1250 kg/ha) was 1.0. For the same molecule, the “Preemergence herbicidal rating ORYSAT” value (ORYSAT (Rice, Tebonnet) [1]; rate 0.2500 kg/ha) was 5.0, the “Preemergence herbicidal rating TRZAWR” value ([2]; rate 0.0156 kg/ha) was 0.0 and the “Preemergence herbicidal rating TRZAWR” value ([2]; rate 0.0313 kg/ha) was 0.0. The “Preemergence herbicidal rating TRZAWR” value ([2]; rate 0.0625 kg/ha) was 1.0, the “Preemergence herbicidal rating TRZAWR” value ([2]; rate 0.1250 kg/ha) was 1.0 and the “Preemergence herbicidal rating TRZAWR” value ([2]; rate 0.2500 kg/ha) was 3.0. For the same molecule, the “Preemergence herbicidal rating GALAP” value (GALAP (Galium); rate 0.0156 kg/ha) was 0.0, the “Preemergence herbicidal rating GALAP” value (GALAP (Galium); rate 0.0313 kg/ha) was 0.0 and the “Preemergence herbicidal rating GALAP” value (GALAP (Galium); rate 0.0625 kg/ha) was 1.0. The “Preemergence herbicidal rating GALAP” value (GALAP (Galium); rate 0.2500 kg/ha) was 7.0, the “Postemergence herbicidal rating CHEAL” value ([3]; Rate 0.0158 kg/ha) was 9.0 and the “Postemergence herbicidal rating CHEAL” value ([3]; Rate 0.0315 kg/ha) was 9.0. For the same molecule, the “Postemergence herbicidal rating CHEAL” value ([3]; Rate 0.0630 kg/ha) was 9.0, the “Herbicidal rating CYPSE” value (CYPSE (Flatsedge); Rate 0.0313 kg/ha) was 0.0 and the “Herbicidal rating CYPSE” value (CYPSE (Flatsedge); Rate 0.0625 kg/ha) was 0.0. The “Herbicidal rating CYPSE” value (CYPSE (Flatsedge); Rate 0.1250 kg/ha) was 0.0, the “Herbicidal rating CYPSE” value (CYPSE (Flatsedge); Rate 0.2500 kg/ha) was 0.0 and the “MOOVA herbicidal effect rating” value (MOOVA (Monochoria); 0.0313 kg/ha) was 7.0. For the same molecule, the “MOOVA herbicidal effect rating” value (MOOVA (Monochoria); 0.0625 kg/ha) was 9.0, the “MOOVA herbicidal effect rating” value (MOOVA (Monochoria); 0.1250 kg/ha) was 9.0 and the “MOOVA herbicidal effect rating” value (MOOVA (Monochoria); 0.2500 kg/ha) was 9.0. For the same molecule, the “Postemergence herbicidal rating ECHCG” value (ECHCG (Barnyardgrass); Rate 0.0158 kg/ha) was 3.0, the “Postemergence herbicidal rating ECHCG” value (ECHCG (Barnyardgrass); Rate 0.0315 kg/ha) was 5.0 and the “Postemergence herbicidal rating ECHCG” value (ECHCG (Barnyardgrass); Rate 0.0630 kg/ha) was 7.0. The “CYPIR herbicidal effect rating” value (CYPIR (Rice Flatsedge); 0.0313 kg/ha) was 0.0, the “CYPIR herbicidal effect rating” value (CYPIR (Rice Flatsedge); 0.0625 kg/ha) was 2.0 and the “CYPIR herbicidal effect rating” value (CYPIR (Rice Flatsedge); 0.1250 kg/ha) was 2.0. The “CYPIR herbicidal effect rating” value (CYPIR (Rice Flatsedge); 0.2500 kg/ha) was 7.0, the “Postemergence herbicidal rating ORYSAT” value (ORYSAT (Rice, Tebonnet) [4]; Rate 0.0158 kg/ha) was 6.0 and the “Postemergence herbicidal rating ORYSAT” value (ORYSAT (Rice, Tebonnet) [4]; Rate 0.0315 kg/ha) was 6.0. For the same molecule, the “Postemergence herbicidal rating ORYSAT” value (ORYSAT (Rice, Tebonnet) [4]; Rate 0.0630 kg/ha) was 6.0, the “SAGPY herbicidal effect rating” value ([5]; 0.0313 kg/ha) was 0.0 and the “SAGPY herbicidal effect rating” value ([5]; 0.0625 kg/ha) was 3.0. For the same molecule, the “SAGPY herbicidal effect rating” value ([5]; 0.1250 kg/ha) was 5.0, the “SAGPY herbicidal effect rating” value ([5]; 0.2500 kg/ha) was 8.0 and the “Preemergence herbicidal rating SETVI” value (SETVI (Foxtail, Green); rate 0.0156 kg/ha) was 0.0. The “Preemergence herbicidal rating SETVI” value (SETVI (Foxtail, Green); rate 0.0313 kg/ha) was 0.0, the “Preemergence herbicidal rating SETVI” value (SETVI (Foxtail, Green); rate 0.0625 kg/ha) was 9.0 and the “Preemergence herbicidal rating SETVI” value (SETVI (Foxtail, Green); rate 0.1250 kg/ha) was 7.0. For the same molecule, the “Preemergence herbicidal rating SETVI” value (SETVI (Foxtail, Green); rate 0.2500 kg/ha) was 9.0, the “Preemergence herbicidal rating GLXMAW” value ([6]; rate 0.0156 kg/ha) was 0.0 and the “Preemergence herbicidal rating GLXMAW” value ([6]; rate 0.0313 kg/ha) was 0.0. For the same molecule, the “Preemergence herbicidal rating GLXMAW” value ([6]; rate 0.0625 kg/ha) was 2.0, the “Preemergence herbicidal rating GLXMAW” value ([6]; rate 0.1250 kg/ha) was 3.0 and the “Preemergence herbicidal rating GLXMAW” value ([6]; rate 0.2500 kg/ha) was 5.0.
